Here are results for three compounds from patent US20080121012A1, “Electrode Calibration” (priority 2004, published 2008).

For data set [1] the following is noted: cited from earlier work.
Data set [2] is described as follows: Detection of CO release using the myoglobin assay (conversion of deoxy-Mb to MbCO). The data set is classed as physicochemical. As to the method: The release of CO from CORM-A1 (Na2[H3BCOO]) was assessed spectrophotometrically by measuring the conversion of deoxymyoglobin (deoxy-Mb) to carbonmonoxy myoglobin (MbCO) in a manner previously reported (refs. 3, 4, 5). A small aliquot of CORM-A1 (60 μM final concentration) was added to 1 ml deoxy-Mb (≈53 μM) in phosphate buffer and changes in the Mb spectra were recorded over time. The amount of MbCO formed was quantified by measuring the absorbance at 540 nm (extinction coefficient=[…]). In order to examine the effect of pH on the rate of CO liberation from CORM-A1, experiments were conducted using solutions of myoglobin in 0.04 M phosphate buffer prepared at different pHs (7.4, 7.0, 6.5 and 5.5). The amount of MbCO formed was plotted over time and the half-life of CORM-A1 at different pHs and temperatures was calculated from the fitted curves.
The conversion of deoxy-Mb to MbCO can be followed over time by measuring the changes in the absorption spectra of this protein. […] The Mb appears to be fully saturated 2 h after addition of CORM-A1 (see curve with filled diamonds in FIG. 1A). […] Specifically, from the fitted curves shown in FIG. 2A we can calculate that the half-lives of CORM-A1 at 37° C. are as follows: 21 min at pH=7.4; 7.1 min at pH=7.0; 3.3 min at pH=6.5; and 2.5 min at pH=5.5.

Data set [3] in a line: Detection of CO release using an amperometric CO sensor. The following applies: 20 μM; for dissociation rate constant of CO / half-life: 37° C. The data set is classed as physicochemical. The source says: The release of CO from CORM-A1 was also detected using a prototype electrode purchased from World Precision Instrument (Stevenage, Herts, UK). This CO electrode is a membrane-covered amperometric sensor which has been designed on a basic operating principle similar to the nitric oxide (NO) sensor (ISO-NOP series, World Precision Instruments). The CO sensor can be connected to the ISO-NO Mark II meter for detection of the current signals providing that the poise potential is set to a different value (900 mV for CO as opposed to 860 mV for NO). In principle, CO diffuses through the gas permeable membrane and is then oxidized to CO2 on the working electrode. This oxidation creates a current whose magnitude can be related directly to the concentration of CO in solution. The CO sensor was used to generate standard curves and calculate the rates of CO release from CORM-A1 at different pHs and temperatures. The electrode was immersed into the solutions at different pHs and equilibrated for 30 min prior to addition of CORM-A1. For the experiments conducted at 37, 30, 25 and 20° C., the solutions were maintained at the desired temperature using a Grant W6 thermostat (Cambridge, England).
CORM-A1 was also tested for its ability to liberate CO using an amperometric electrode sensitive to CO. […] A standard curve generated at pH=5.5 using CORM-A1 in a range between 10 and 50 μM indicated a good linear correlation (R^2=0.998) between the concentrations used and the electrode response (FIG. 3B). Therefore, a concentration of 20 μM CORM-A1 was then used to calculate the rate of CO dissociation from CORM-A1 at different pHs and temperatures. […] Specifically, from the curves shown in FIG. 3D, we can calculate that the initial rate of CO release at pH=5.5 is 6.84 μM/min at 37° C., 3.83 μM/min at 30° C., 2.16 μM/min at 25° C. and 1.22 μM/min at 20° C. Thus, the spontaneous liberation of CO from CORM-A1 in aqueous solutions is both pH- and temperature-dependent.

As usually defined, the half-life is how long it takes for the measured level to halve. Lower therefore signals fast loss.

Consider `[C-]#[O+].[C-]#[O+].[C-]#[O+].[C-]#[O+].[C-]#[O+].[C-]#[O+].[C-]#[O+].[C-]#[O+].[C-]#[O+].[C-]#[O+].[Mn].[Mn]` [CORM-1, manganese decacarbonyl], for which the solubility entry in data set [1] is on record as “soluble only in organic solvents”.
`[C-]#[O+].[C-]#[O+].[C-]#[O+].[C-]#[O+].[C-]#[O+].[C-]#[O+].[Cl][Ru][Cl].[Cl][Ru][Cl]` [CORM-2, tricarbonyldichlororuthenium(II) dimer]: the solubility result in data set [1] is on record as “soluble only in organic solvents”.
For the compound sodium boranocarbonate [CORM-A1], in data set [2] (60 μM, 37° C., pH=7.4), the “time until Mb is fully saturated with CO” value worked out at 2 h. The “mole of CO formed per mole of compound” value in data set [2] (pH=5.5, standard curve) is “one”. Further, the figures for the “dissociation rate constant of CO” value in data set [3] (pH=4.0), in data set [3] (pH=5.5) and in data set [3] (pH=7.4) were 0.011 s⁻¹, 0.0058 s⁻¹ and 0.00055 s⁻¹, respectively. Also, the half-life is 1.96 min in data set [3] (pH=5.5) and 21.06 min in data set [3] (pH=7.4). In addition, the “initial rate of CO release” value in data set [3] (pH=5.5, 20° C.) worked out at 1.22 µM/min; in data set [3] (pH=5.5, 25° C.), 2.16 µM/min; in data set [3] (pH=5.5, 30° C.), 3.83 µM/min; in data set [3] (pH=5.5, 37° C.), 6.84 µM/min.
